Assay results as given in patent US8048892B2, “Azaquinolone based compounds exhibiting prolyl hydroxylase inhibitory activity, compositions, and uses thereof” (Amgen Inc., priority 2006, dated 2011).
Where a name gives a salt, the structure may show the parent alone.

Target: HIF PHD2 (Homo sapiens, UniProt Q9GZT9)
Test: PHD2 inhibition assay (TR-FRET, VCB-Eu detection of hydroxylated P564-HIF1α peptide)
Type: biochemical
Details: 2 nM PHD2, 100 nM P564-HIF1α peptide, 0.25 μM 2-oxoglutarate
Procedure, shortened: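 Human PHD2 (2 nM final) preincubated 1 h at room temperature with compound and 100 μM FeCl2 in pH 6 MES buffer, 5% DMSO final. Reaction with 100 nM biotinylated P564-HIF1α peptide, 2 mM ascorbate and 0.25 μM 2-oxoglutarate for 1 h, stopped with succinate. Hydroxylation read by TR-FRET (VCB-Eu/streptavidin-APC, 655/615 nm); IC50 from 4-parameter fit of percent of control.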

HIF PHD2, sequence (Q9GZT9 whole entry): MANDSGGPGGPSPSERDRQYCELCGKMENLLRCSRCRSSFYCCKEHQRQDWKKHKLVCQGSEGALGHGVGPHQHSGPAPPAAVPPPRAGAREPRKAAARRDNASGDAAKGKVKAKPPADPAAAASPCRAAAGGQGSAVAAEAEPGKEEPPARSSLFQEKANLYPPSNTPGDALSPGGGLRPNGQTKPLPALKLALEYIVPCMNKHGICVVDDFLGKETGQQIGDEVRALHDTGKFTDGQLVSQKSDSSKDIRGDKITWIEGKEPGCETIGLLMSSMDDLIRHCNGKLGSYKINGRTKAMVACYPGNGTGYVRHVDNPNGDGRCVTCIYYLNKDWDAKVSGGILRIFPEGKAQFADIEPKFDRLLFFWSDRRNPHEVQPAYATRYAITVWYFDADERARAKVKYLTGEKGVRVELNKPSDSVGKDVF

IC50	Compound
100 to 500 nM	Cn1c(=O)c(C(=O)NCC(=O)O)c(O)c2cc(C3CCCC3)c(C(F)(F)F)nc21 [Example 98, 2-(6-Cyclopentyl-4-hydroxy-1-methyl-2-oxo-7-(trifluoromethyl)-1,2-dihydro-1,8-naphthyridine-3-carboxamido)acetic acid]
< 50 nM	Cn1c(=O)c(C(=O)NCC(=O)O)c(O)c2cc(-c3ccccc3)ncc21 [Example 105, N-((4-Hydroxy-1-methyl-2-oxo-6-phenyl-1,2-dihydro-1,7-naphthyridin-3-yl)carbonyl)glycine]
< 50 nM	Cc1ccccc1-c1cc2c(O)c(C(=O)NCC(=O)O)c(=O)n(C)c2cn1 [Example 106, N-((4-Hydroxy-1-methyl-6-(2-methylphenyl)-2-oxo-1,2-dihydro-1,7-naphthyridin-3-yl)carbonyl)glycine]
50 to 100 nM	Cn1c(=O)c(C(=O)NCC(=O)O)c(O)c2cc(-c3cccnc3)ncc21 [Example 107, N-((4-Hydroxy-1-methyl-2-oxo-6-(3-pyridinyl)-1,2-dihydro-1,7-naphthyridin-3-yl)carbonyl)glycine]
< 50 nM	Cn1c(=O)c(C(=O)NCC(=O)O)c(O)c2cc(-c3ccc4c(c3)CCO4)ncc21 [Example 108, N-((6-(2,3-Dihydro-1-benzofuran-5-yl)-4-hydroxy-1-methyl-2-oxo-1,2-dihydro-1,7-naphthyridin-3-yl)carbonyl)glycine]
< 50 nM	Cn1c(=O)c(C(=O)NCC(=O)O)c(O)c2cc(-c3cccs3)ncc21 [Example 109, N-((4-Hydroxy-1-methyl-2-oxo-6-(2-thienyl)-1,2-dihydro-1,7-naphthyridin-3-yl)carbonyl)glycine]
< 50 nM	Cn1c(=O)c(C(=O)NCC(=O)O)c(O)c2cc(-c3ccc(OC(F)(F)F)cc3)ncc21 [Example 110, 2-(4-Hydroxy-1-methyl-2-oxo-6-(4-(trifluoromethoxy)phenyl)-1,2-dihydro-1,7-naphthyridine-3-carboxamido)acetic acid, Trifluoroacetic acid salt.]
< 50 nM	Cn1c(=O)c(C(=O)NCC(=O)O)c(O)c2cc(Cl)ncc21 [Example 111, 2-(6-Chloro-4-hydroxy-1-methyl-2-oxo-1,2-dihydro-1,7-naphthyridine-3-carboxamido)acetic acid]
50 to 100 nM	Cn1c(=O)c(C(=O)NCC(=O)O)c(O)c2ccncc21 [Example 112, N-((4-Hydroxy-1-methyl-2-oxo-1,2-dihydro-1,7-naphthyridin-3-yl)carbonyl)glycine]
< 50 nM	CC(C)c1cc2c(O)c(C(=O)NCC(=O)O)c(=O)n(C)c2cn1 [Example 113, N-((4-Hydroxy-1-methyl-6-(1-methylethyl)-2-oxo-1,2-dihydro-1,7-naphthyridin-3-yl)carbonyl)glycine]
50 to 100 nM	Cn1c(=O)c(C(=O)NCC(=O)O)c(O)c2cc(C3=CCNCC3)ncc21 [Example 114, 2-(4-Hydroxy-1-methyl-2-oxo-6-(1,2,3,6-tetrahydropyridin-4-yl)-1,2-dihydro-1,7-naphthyridine-3-carboxamido)acetic acid, Trifluoroacetic acid salt]
50 to 100 nM	Cn1c(=O)c(C(=O)NCC(=O)O)c(O)c2cc(C3CCNCC3)ncc21 [Example 115, 2-(4-Hydroxy-1-methyl-2-oxo-6-(piperidin-4-yl)-1,2-dihydro-1,7-naphthyridine-3-carboxamido)acetic acid, Trifluoroacetic acid salt]
< 50 nM	CN1CC=C(c2cc3c(O)c(C(=O)NCC(=O)O)c(=O)n(C)c3cn2)CC1 [Example 116, 2-(4-Hydroxy-1-methyl-6-(1-methyl-1,2,3,6-tetrahydropyridin-4-yl)-2-oxo-1,2-dihydro-1,7-naphthyridine-3-carboxamido)acetic acid, Trifluoroacetic acid salt]

The remaining lines, values behind:

Compound	IC50
Cn1c(=O)c(C(=O)NCC(=O)O)c(O)c2cccnc21 [Example 76, 2-(4-Hydroxy-1-methyl-2-oxo-1,2-dihydro-1,8-naphthyridine-3-carboxamido)acetic acid]	50 to 100 nM
Cn1c(=O)c(C(=O)NCC(=O)O)c(O)c2cc(F)cnc21 [Example 77, 2-(6-Fluoro-4-hydroxy-1-methyl-2-oxo-1,2-dihydro-1,8-naphthyridine-3-carboxamido)acetic acid]	50 to 100 nM
Cn1c(=O)c(C(=O)NCC(=O)O)c(O)c2cc(C#CC(C)(C)C)cnc21 [Example 78, N-((6-(3,3-Dimethyl-1-butyn-1-yl)-4-hydroxy-1-methyl-2-oxo-1,2-dihydro-1,8-naphthyridin-3-yl)carbonyl)glycine]	< 50 nM
CCc1cnc2c(c1)c(O)c(C(=O)NCC(=O)O)c(=O)n2C [Example 79, 2-(6-Ethyl-4-hydroxy-1-methyl-2-oxo-1,2-dihydro-1,8-naphthyridine-3-carboxamido)acetic acid]	< 50 nM
C#Cc1cnc2c(c1)c(O)c(C(=O)NCC(=O)O)c(=O)n2C [Example 80, 2-(6-Ethynyl-4-hydroxy-1-methyl-2-oxo-1,2-dihydro-1,8-naphthyridine-3-carboxamido)acetic acid]	100 to 500 nM
Cn1c(=O)c(C(=O)NCC(=O)O)c(O)c2cc(CCC3CC3)cnc21 [Example 81, 2-(6-(2-Cyclopropylethyl)-4-hydroxy-1-methyl-2-oxo-1,2-dihydro-1,8-naphthyridine-3-carboxamido)acetic acid]	< 50 nM
Cn1c(=O)c(C(=O)NCC(=O)O)c(O)c2cc(C#CC3CC3)cnc21 [Example 82, 2-(6-(2-Cyclopropylethynyl)-4-hydroxy-1-methyl-2-oxo-1,2-dihydro-1,8-naphthyridine-3-carboxamido)acetic acid]	< 50 nM
CCCc1cnc2c(c1)c(O)c(C(=O)NCC(=O)O)c(=O)n2C [Example 83, 2-(4-Hydroxy-1-methyl-2-oxo-6-propyl-1,2-dihydro-1,8-naphthyridine-3-carboxamido)acetic acid]	50 to 100 nM
CC#Cc1cnc2c(c1)c(O)c(C(=O)NCC(=O)O)c(=O)n2C [Example 84, 2-(4-Hydroxy-1-methyl-2-oxo-6-(prop-1-ynyl)-1,2-dihydro-1,8-naphthyridine-3-carboxamido)acetic acid]	100 to 500 nM
Cn1c(=O)c(C(=O)NCC(=O)O)c(O)c2cc(C#N)cnc21 [Example 85, N-((6-Cyano-4-hydroxy-1-methyl-2-oxo-1,2-dihydro-1,8-naphthyridin-3-yl)carbonyl)glycine]	< 50 nM
Cn1c(=O)c(C(=O)NCC(=O)O)c(O)c2ccc(C(F)(F)F)nc21 [Example 86, 2-(4-Hydroxy-1-methyl-2-oxo-7-(trifluoromethyl)-1,2-dihydro-1,8-naphthyridine-3-carboxamido)acetic acid]	< 50 nM
O=C(O)CNC(=O)c1c(O)c2ccc(C(F)(F)F)nc2[nH]c1=O [Example 87, 2-(4-Hydroxy-2-oxo-7-(trifluoromethyl)-1,2-dihydro-1,8-naphthyridine-3-carboxamido)acetic acid]	< 50 nM
C[C@H](NC(=O)c1c(O)c2ccc(C(F)(F)F)nc2[nH]c1=O)C(=O)O [Example 88, (S)-2-(4-Hydroxy-2-oxo-7-(trifluoromethyl)-1,2-dihydro-1,8-naphthyridine-3-carboxamido)propanoic acid]	100 to 500 nM
C[C@H](NC(=O)c1c(O)c2ccc(C(F)(F)F)nc2n(C)c1=O)C(=O)O [Example 89, (S)-2-(4-Hydroxy-1-methyl-2-oxo-7-(trifluoromethyl)-1,2-dihydro-1,8-naphthyridine-3-carboxamido)propanoic acid]	50 to 100 nM
Cn1c(=O)c(C(=O)NCC(=O)O)c(O)c2cc(-c3ccccc3)c(C(F)(F)F)nc21 [Example 90, 2-(4-Hydroxy-1-methyl-2-oxo-6-phenyl-7-(trifluoromethyl)-1,2-dihydro-1,8-naphthyridine-3-carboxamido)acetic acid]	< 50 nM
Cn1c(=O)c(C(=O)NCC(=O)O)c(O)c2cc(-c3cccnc3)c(C(F)(F)F)nc21 [Example 91, 2-(4-Hydroxy-1-methyl-2-oxo-6-(pyridin-3-yl)-7-(trifluoromethyl)-1,2-dihydro-1,8-naphthyridine-3-carboxamido)acetic acid]	< 50 nM
Cc1ncccc1-c1cc2c(O)c(C(=O)NCC(=O)O)c(=O)n(C)c2nc1C(F)(F)F [Example 92, 2-(4-Hydroxy-1-methyl-6-(2-methylpyridin-3-yl)-2-oxo-7-(trifluoromethyl)-1,2-dihydro-1,8-naphthyridine-3-carboxamido)acetic acid]	< 50 nM
Cn1c(=O)c(C(=O)NCC(=O)O)c(O)c2cc(C3CC3)c(C(F)(F)F)nc21 [Example 93, 2-(6-cyclopropyl-4-hydroxy-1-methyl-2-oxo-7-(trifluoromethyl)-1,2-dihydro-1,8-naphthyridine-3-carboxamido)acetic acid]	50 to 100 nM
Cn1c(=O)c(C(=O)NCC(=O)O)c(O)c2cc(Br)c(C(F)(F)F)nc21 [Example 94, 2-(6-Bromo-4-hydroxy-1-methyl-2-oxo-7-(trifluoromethyl)-1,2-dihydro-1,8-naphthyridine-3-carboxamido)acetic acid]	< 50 nM
Cn1c(=O)c(C(=O)NCC(=O)O)c(O)c2cc(C3CCCCC3)c(C(F)(F)F)nc21 [Example 95, 2-(6-Cyclohexyl-4-hydroxy-1-methyl-2-oxo-7-(trifluoromethyl)-1,2-dihydro-1,8-naphthyridine-3-carboxamido)acetic acid]	100 to 500 nM
Cn1c(=O)c(C(=O)NCC(=O)O)c(O)c2cc(C3=CCCCC3)c(C(F)(F)F)nc21 [Example 96, 2-(6-Cyclohexenyl-4-hydroxy-1-methyl-2-oxo-7-(trifluoromethyl)-1,2-dihydro-1,8-naphthyridine-3-carboxamido)acetic acid]	< 50 nM
Cn1c(=O)c(C(=O)NCC(=O)O)c(O)c2cc(C#CC3CC3)c(C(F)(F)F)nc21 [Example 97, 2-(6-(2-Cyclopropylethynyl)-4-hydroxy-1-methyl-2-oxo-7-(trifluoromethyl)-1,2-dihydro-1,8-naphthyridine-3-carboxamido)acetic acid]	< 50 nM
